Data published in patent US7601847B2, “Preparation and purification of 4-(indazol-3-yl)phenols” (Wyeth, priority 2004, dated 2009).
In brackets after ≈: the same amount, converted by molar mass.

Assay: relative solubility in a mixture of methanol and water
Format: physicochemical
Conditions: mixture of methanol and water (57:43 v/v); for solubility: methanol/water mixture (57:43 v/v), aqueous with cosolvent or surfactant or cyclodextrin

| solubility [mg/mL] | difference in solubility in favor of the impurity (VI vs compound I) [×] | Compound |
| --- | --- | --- |
| 6 (≈ 17.9 mM) | – | C=CCn1nc(-c2ccc(O)cc2O)c2cccc(C(F)(F)F)c21 [I, 4-[1-allyl-7-(trifluoromethyl)-1H-indazol-3-yl]benzene-1,3-diol] |
| 140 (≈ 419 mM) | 20 | C=CCn1nc2c(C(F)(F)F)cccc2c1-c1ccc(O)cc1O [VI] |
